The results in this text go back to patent US10494355B2, “Oxadiazole amine derivative compounds as histone deacetylase 6 inhibitor, and the pharmaceutical composition comprising the same” (Chong Kun Dang Pharmaceutical Corp., priority 2015, dated 2019).

The target of one assay is T1, human recombinant HDAC1 (Homo sapiens, UniProt Q13547).
T1 construct: purchased Enzo Life Science BML-SE456
As to the kind of experiment: HDAC1 enzyme activity inhibition assay (HDAC Fluorimetric Drug Discovery Kit). The conditions noted are these: human recombinant HDAC1, 10 μM substrate, 30° C. 60 minutes. Type of assay: biochemical. The method, then: (§1) In order to examine the HDAC6 selectivity of the compounds of formula I of the present invention by HDAC1 and HDAC6 enzymatic activity inhibition assays, an experiment was performed using a conventional substance as a control.
(§2) HDAC enzyme activity was measured using a HDAC Fluorimetric Drug Discovery Kit (BML-AK511, 516, Enzo Life Science). For the HDAC1 enzyme activity test, human recombinant HDAC1 (BML-SE456) was used as an enzyme source, and Fluor de Lys®-“SIRT1 (BNL-KI177) was used as a substrate. A 5-fold dilution of the compound was seeded into a 96-well plate, and then 0.3 μg of the enzyme and 10 μM of the substrate were added to each well of the plate and allowed to react at 30° C. for 60 minutes. Then, Fluor de Lys®-Developer II (BML-KI176) was added thereto and allowed to react for 30 minutes, after which the fluorescence value (Ex 360, Em 460) was measured using a multi-plate reader (Flexstation 3, Molecular Device). The HDAC6 enzyme was tested using human recombinant HDAC6 (382180) (Calbiochem) according to the same protocol as the HDAC1 enzyme activity test method. Based on the resulting values, each IC50 value was calculated using GraphPad Prism4.0 program.

A further assay deals with T2, human recombinant HDAC6 (Homo sapiens, UniProt Q9UBN7).
T2 construct: purchased Calbiochem 382180
T2 sequence (Q9UBN7 1-1215): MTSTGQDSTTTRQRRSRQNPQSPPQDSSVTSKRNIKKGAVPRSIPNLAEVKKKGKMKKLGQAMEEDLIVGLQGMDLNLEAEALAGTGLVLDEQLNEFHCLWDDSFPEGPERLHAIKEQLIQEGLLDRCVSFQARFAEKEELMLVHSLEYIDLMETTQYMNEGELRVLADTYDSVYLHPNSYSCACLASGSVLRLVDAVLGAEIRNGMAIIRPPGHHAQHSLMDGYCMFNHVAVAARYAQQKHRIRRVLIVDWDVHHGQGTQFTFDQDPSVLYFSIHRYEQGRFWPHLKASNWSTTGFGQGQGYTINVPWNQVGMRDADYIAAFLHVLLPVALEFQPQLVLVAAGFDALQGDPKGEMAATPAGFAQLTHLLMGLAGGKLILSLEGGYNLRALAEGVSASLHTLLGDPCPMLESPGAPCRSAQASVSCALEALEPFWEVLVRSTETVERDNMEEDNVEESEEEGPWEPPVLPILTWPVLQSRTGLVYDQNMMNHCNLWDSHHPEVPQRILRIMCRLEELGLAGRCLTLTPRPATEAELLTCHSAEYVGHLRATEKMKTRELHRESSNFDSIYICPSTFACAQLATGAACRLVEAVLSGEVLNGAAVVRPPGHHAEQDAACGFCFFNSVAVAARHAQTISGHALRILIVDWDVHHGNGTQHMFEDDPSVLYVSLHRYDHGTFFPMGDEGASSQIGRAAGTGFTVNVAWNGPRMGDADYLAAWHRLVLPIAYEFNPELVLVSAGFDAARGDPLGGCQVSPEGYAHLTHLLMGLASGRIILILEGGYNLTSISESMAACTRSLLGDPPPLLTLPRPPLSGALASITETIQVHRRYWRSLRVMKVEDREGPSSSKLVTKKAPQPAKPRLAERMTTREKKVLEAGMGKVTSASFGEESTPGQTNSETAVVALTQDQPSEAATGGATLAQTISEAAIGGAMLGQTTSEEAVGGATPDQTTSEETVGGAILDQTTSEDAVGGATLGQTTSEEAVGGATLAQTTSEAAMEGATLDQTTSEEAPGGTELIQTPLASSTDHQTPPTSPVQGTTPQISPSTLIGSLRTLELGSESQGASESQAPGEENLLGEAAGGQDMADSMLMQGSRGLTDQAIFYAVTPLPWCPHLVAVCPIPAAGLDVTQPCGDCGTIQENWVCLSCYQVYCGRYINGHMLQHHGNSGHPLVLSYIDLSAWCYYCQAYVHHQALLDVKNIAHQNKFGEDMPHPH
Kind of assay: HDAC6 enzyme activity inhibition assay (HDAC Fluorimetric Drug Discovery Kit). The conditions noted are these: 30° C. 60 minutes. Type of assay: biochemical. The method, then: as §1, §2

T1 sequence (Q13547 whole entry): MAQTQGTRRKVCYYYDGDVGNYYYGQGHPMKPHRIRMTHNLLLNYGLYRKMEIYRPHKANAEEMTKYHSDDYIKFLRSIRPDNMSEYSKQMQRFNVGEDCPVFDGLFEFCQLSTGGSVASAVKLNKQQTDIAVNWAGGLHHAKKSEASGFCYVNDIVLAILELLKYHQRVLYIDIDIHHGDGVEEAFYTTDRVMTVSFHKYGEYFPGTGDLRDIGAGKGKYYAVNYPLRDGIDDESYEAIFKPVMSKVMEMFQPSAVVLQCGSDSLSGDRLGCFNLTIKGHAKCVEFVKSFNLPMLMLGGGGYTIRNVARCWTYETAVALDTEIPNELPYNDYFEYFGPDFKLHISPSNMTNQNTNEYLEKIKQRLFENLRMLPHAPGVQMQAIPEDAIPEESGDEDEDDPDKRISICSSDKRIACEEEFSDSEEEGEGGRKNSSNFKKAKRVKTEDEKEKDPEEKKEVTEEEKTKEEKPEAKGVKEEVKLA

Regarding `Cc1ccccc1C1(Nc2ncc(-c3nnc(C(F)F)o3)cn2)CCC1` [Compound 1671, 5-(5-(difluoromethyl)-1,3,4-oxadiazol-2-yl)-N-(1-(o-tolyl)cyclobutyl)pyrimidin-2-amine], the half-maximal inhibitory concentration (IC50) – broadly, the point on the concentration scale where inhibition reaches its midpoint – on human recombinant HDAC1 is > 10000 nM; at human recombinant HDAC6 it was 44 nM.

As to `Fc1cccc(C2(Nc3ncc(-c4nnc(C(F)F)o4)cn3)CCC2)c1` [Compound 1607, 5-(5-(difluoromethyl)-1,3,4-oxadiazol-2-yl)-N-(1-(3-fluorophenyl)cyclobutyl)pyrimidin-2-amine], the results for the IC50 at human recombinant HDAC1 and on human recombinant HDAC6 were > 10000 nM and 32 nM, respectively.

`FC(F)c1nnc(-c2cnc(NC3(c4ccccn4)CCC3)nc2)o1` [Compound 1640, 5-(5-(difluoromethyl)-1,3,4-oxadiazol-2-yl)-N-(1-(pyridin-2-yl)cyclobutyl)pyrimidin-2-amine]: the 50% inhibitory concentration (IC50) at human recombinant HDAC1 was > 10000 nM; on human recombinant HDAC6, 28 nM.

`FC(F)(F)c1nnc(-c2cnc(NC3(c4ccccc4)CC3)nc2)o1` [Compound 1526, N-(1-phenylcyclopropyl)-5-(5-(trifluoromethyl)-1,3,4-oxadiazol-2-yl)pyrimidin-2-amine]: the results for the IC50 at human recombinant HDAC1 and on human recombinant HDAC6 were > 10000 nM and 179 nM, respectively.

Consider `Cc1ccc(C2(Nc3ncc(-c4nnc(C(F)F)o4)cn3)CCC2)cc1` [Compound 1675, 5-(5-(difluoromethyl)-1,3,4-oxadiazol-2-yl)-N-(1-(p-tolyl)cyclobutyl)pyrimidin-2-amine], for which the IC50 on human recombinant HDAC1 was > 10000 nM; at human recombinant HDAC6, 39 nM.

`COc1ccc(C2(Nc3ncc(-c4nnc(C(F)F)o4)cn3)CC2)cc1` [Compound 2049, 5-(5-(difluoromethyl)-1,3,4-oxadiazol-2-yl)-N-(1-(4-methoxyphenyl)cyclopropyl)pyrimidin-2-amine]: the IC50 was > 10000 nM at human recombinant HDAC1 and 51 nM on human recombinant HDAC6.

With `Fc1ccc(Cl)c(C2(Nc3ncc(-c4nnc(C(F)F)o4)cn3)CCC2)c1` [Compound 1961, N-(1-(2-chloro-5-fluorophenyl)cyclobutyl)-5-(5-(difluoromethyl)-1,3,4-oxadiazol-2-yl)pyrimidin-2-amine], the IC50 on human recombinant HDAC1 was > 10000 nM; at human recombinant HDAC6, 115 nM.

`FC(F)c1nnc(-c2cnc(NC3(c4c(Cl)cccc4Cl)CCC3)nc2)o1` [Compound 1838, N-(1-(2,6-dichlorophenyl)cyclobutyl)-5-(5-(difluoromethyl)-1,3,4-oxadiazol-2-yl)pyrimidin-2-amine]: the IC50 at human recombinant HDAC1 is > 10000 nM; at human recombinant HDAC6, 110 nM.

With `CN1CCC(c2ccc(C3(Nc4ncc(-c5nnc(C(F)F)o5)cn4)CCC3)cc2)CC1` [Compound 2035, 5-(5-(difluoromethyl)-1,3,4-oxadiazol-2-yl)-N-(1-(4-(1-methylpiperidin-4-yl)phenyl)cyclobutyl)pyrimidin-2-amine], the IC50 was > 10000 nM at human recombinant HDAC1 and 367 nM at human recombinant HDAC6.

Consider `FC(F)c1nnc(-c2cnc(NC3(c4ccccc4OC(F)(F)F)CCC3)nc2)o1` [Compound 2028, 5-(5-(difluoromethyl)-1,3,4-oxadiazol-2-yl)-N-(1-(2-(trifluoromethoxy)phenyl)cyclobutyl)pyrimidin-2-amine], for which the IC50 at human recombinant HDAC1 was > 10000 nM; at human recombinant HDAC6, 302 nM.

As for `FC(F)c1nnc(-c2cnc(NC3(c4ccccc4Cl)CCC3)nc2)o1` [Compound 1614, N-(1-(2-chlorophenyl)cyclobutyl)-5-(5-(difluoromethyl)-1,3,4-oxadiazol-2-yl)pyrimidin-2-amine], the IC50 at human recombinant HDAC1 was > 10000 nM; at human recombinant HDAC6 it was 29 nM.

For the molecule `FC(F)c1nnc(-c2cnc(NC3(c4ccccc4C(F)(F)F)CCC3)nc2)o1` [Compound 2042, 5-(5-(difluoromethyl)-1,3,4-oxadiazol-2-yl)-N-(1-(2-(trifluoromethyl)phenyl)cyclobutyl)pyrimidin-2-amine], the values for the IC50 on human recombinant HDAC1 and at human recombinant HDAC6 were > 10000 nM and 173 nM, respectively.

On to `FC(F)(F)c1nnc(-c2cnc(NC3(c4ccc(Cl)cc4)CCC3)nc2)o1` [Compound 1618, N-(1-(4-chlorophenyl)cyclobutyl)-5-(5-(trifluoromethyl)-1,3,4-oxadiazol-2-yl)pyrimidin-2-amine], for which the IC50 was > 10000 nM at human recombinant HDAC1 and 267 nM on human recombinant HDAC6.

For `Fc1cccc(C2(Nc3ncc(-c4nnc(C(F)F)o4)cn3)CC2)c1` [Compound 1713, 5-(5-(difluoromethyl)-1,3,4-oxadiazol-2-yl)-N-(1-(3-fluorophenyl)cyclopropyl)pyrimidin-2-amine], the concentration for half-maximal inhibition (IC50) is > 10000 nM on human recombinant HDAC1 and 33 nM at human recombinant HDAC6.

`FC(F)c1nnc(-c2cnc(NC3(c4ccsc4)CCC3)nc2)o1` [Compound 2038, 5-(5-(difluoromethyl)-1,3,4-oxadiazol-2-yl)-N-(1-(thiophen-3-yl)cyclobutyl)pyrimidin-2-amine]: the IC50 was > 10000 nM on human recombinant HDAC1 and 111 nM at human recombinant HDAC6.

On to `Fc1ccc(C2(Nc3ncc(-c4nnc(C(F)(F)F)o4)cn3)CC2)cc1Cl` [Compound 1723, N-(1-(3-chloro-4-fluorophenyl)cyclopropyl)-5-(5-(trifluoromethyl)-1,3,4-oxadiazol-2-yl)pyrimidin-2-amine], for which the concentration for half-maximal inhibition (IC50) is > 10000 nM on human recombinant HDAC1 and 219 nM at human recombinant HDAC6.

As for `FC(F)c1nnc(-c2cnc(NC3(c4cccc(C(F)(F)F)c4)CCC3)nc2)o1` [Compound 1642, 5-(5-(difluoromethyl)-1,3,4-oxadiazol-2-yl)-N-(1-(3-(trifluoromethyl)phenyl)cyclobutyl)pyrimidin-2-amine], the IC50 at human recombinant HDAC1 was > 10000 nM; on human recombinant HDAC6 it was 57 nM.

As for `Fc1ccc(Cl)c(C2(Nc3ncc(-c4nnc(C(F)(F)F)o4)cn3)CCC2)c1` [Compound 1962, N-(1-(2-chloro-5-fluorophenyl)cyclobutyl)-5-(5-(trifluoromethyl)-1,3,4-oxadiazol-2-yl)pyrimidin-2-amine], the IC50 on human recombinant HDAC1 is > 10000 nM; on human recombinant HDAC6 it was 888 nM.

Regarding `Fc1ccccc1C1(Nc2ncc(-c3nnc(C(F)(F)F)o3)cn2)CCC1` [Compound 1610, N-(1-(2-fluorophenyl)cyclobutyl)-5-(5-(trifluoromethyl)-1,3,4-oxadiazol-2-yl)pyrimidin-2-amine], the IC50 at human recombinant HDAC1 is > 10000 nM; at human recombinant HDAC6, 151 nM.

In the case of `Fc1ccc(C2(Nc3ncc(-c4nnc(C(F)F)o4)cn3)CCC2)c(F)c1` [Compound 2027, 5-(5-(difluoromethyl)-1,3,4-oxadiazol-2-yl)-N-(1-(2,4-difluorophenyl)cyclobutyl)pyrimidin-2-amine], the IC50 was > 10000 nM at human recombinant HDAC1 and 90 nM at human recombinant HDAC6.

Take `Cc1cccc(C2(Nc3ncc(-c4nnc(C(F)(F)F)o4)cn3)CCC2)c1` [Compound 1674, N-(1-(m-tolyl)cyclobutyl)-5-(5-(trifluoromethyl)-1,3,4-oxadiazol-2-yl)pyrimidin-2-amine]: the IC50 on human recombinant HDAC1 was > 10000 nM; on human recombinant HDAC6 it was 132 nM.

For the molecule `FC(F)c1nnc(-c2cnc(NC3(c4ccccc4)CCNCC3)nc2)o1` [Compound 1678, 5-(5-(difluoromethyl)-1,3,4-oxadiazol-2-yl)-N-(4-phenylpiperidin-4-yl)pyrimidin-2-amine], the values for the IC50 at human recombinant HDAC1 and at human recombinant HDAC6 were > 10000 nM and 225 nM, respectively.

`Fc1ccc(C2(Nc3ncc(-c4nnc(C(F)F)o4)cn3)CC2)cc1F` [Compound 1779, 5-(5-(difluoromethyl)-1,3,4-oxadiazol-2-yl)-N-(1-(3,4-difluorophenyl)cyclopropyl)pyrimidin-2-amine]: the IC50 at human recombinant HDAC6 came out at 134 nM.
